Experimental data published in patent publication US11020399B2, “Intermediates useful in the synthesis of compounds as modulators of protein kinases” (Rhizen Pharmaceuticals SA, priority 2011, dated 2021).

What was measured:
PI3kδ = PI3kδ (Homo sapiens, UniProt O00329); test: Fluorescent (HTRF) determination of PI3 kinase enzyme activity, PI3Kδ; assay type: biochemical; conditions: for inhibition at 0.1 µM / % inhibition (PI3kδ) 100 nM: 100 nM (Examples 60-137); for inhibition at 0.3 µM: 300 nM (Examples 1-59); for % inhibition (PI3kδ) 100 nM: 0.1 µM
Chain of PI3kδ (O00329 whole entry, canonical isoform): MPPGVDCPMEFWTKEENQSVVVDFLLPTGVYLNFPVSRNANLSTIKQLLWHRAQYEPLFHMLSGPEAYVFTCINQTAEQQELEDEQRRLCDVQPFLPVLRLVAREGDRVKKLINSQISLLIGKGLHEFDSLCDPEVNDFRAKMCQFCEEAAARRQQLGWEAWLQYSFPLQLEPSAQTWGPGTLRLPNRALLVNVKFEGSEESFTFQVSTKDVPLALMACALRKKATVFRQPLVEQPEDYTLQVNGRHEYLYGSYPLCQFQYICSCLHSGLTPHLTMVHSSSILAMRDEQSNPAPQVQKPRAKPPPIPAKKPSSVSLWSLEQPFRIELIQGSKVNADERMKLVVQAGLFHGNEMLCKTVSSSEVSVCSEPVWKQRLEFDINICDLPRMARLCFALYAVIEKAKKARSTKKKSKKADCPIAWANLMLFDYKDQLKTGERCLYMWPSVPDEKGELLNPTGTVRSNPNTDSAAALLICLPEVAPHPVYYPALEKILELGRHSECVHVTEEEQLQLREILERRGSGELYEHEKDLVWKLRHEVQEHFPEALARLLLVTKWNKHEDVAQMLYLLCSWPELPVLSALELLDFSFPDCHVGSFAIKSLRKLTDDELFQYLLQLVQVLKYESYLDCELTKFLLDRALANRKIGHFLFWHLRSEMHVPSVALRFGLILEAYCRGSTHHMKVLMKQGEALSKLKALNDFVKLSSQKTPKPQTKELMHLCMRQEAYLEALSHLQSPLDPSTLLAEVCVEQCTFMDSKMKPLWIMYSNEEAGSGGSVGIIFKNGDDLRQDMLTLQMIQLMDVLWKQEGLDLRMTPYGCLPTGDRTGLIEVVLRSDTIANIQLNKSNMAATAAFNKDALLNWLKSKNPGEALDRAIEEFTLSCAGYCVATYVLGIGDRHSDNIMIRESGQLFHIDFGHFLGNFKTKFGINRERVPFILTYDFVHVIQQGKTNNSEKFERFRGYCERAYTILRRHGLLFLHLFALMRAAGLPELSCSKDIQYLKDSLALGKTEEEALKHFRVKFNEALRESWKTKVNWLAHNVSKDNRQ
Chain of PI3kδ (P27986 whole entry partner, canonical isoform): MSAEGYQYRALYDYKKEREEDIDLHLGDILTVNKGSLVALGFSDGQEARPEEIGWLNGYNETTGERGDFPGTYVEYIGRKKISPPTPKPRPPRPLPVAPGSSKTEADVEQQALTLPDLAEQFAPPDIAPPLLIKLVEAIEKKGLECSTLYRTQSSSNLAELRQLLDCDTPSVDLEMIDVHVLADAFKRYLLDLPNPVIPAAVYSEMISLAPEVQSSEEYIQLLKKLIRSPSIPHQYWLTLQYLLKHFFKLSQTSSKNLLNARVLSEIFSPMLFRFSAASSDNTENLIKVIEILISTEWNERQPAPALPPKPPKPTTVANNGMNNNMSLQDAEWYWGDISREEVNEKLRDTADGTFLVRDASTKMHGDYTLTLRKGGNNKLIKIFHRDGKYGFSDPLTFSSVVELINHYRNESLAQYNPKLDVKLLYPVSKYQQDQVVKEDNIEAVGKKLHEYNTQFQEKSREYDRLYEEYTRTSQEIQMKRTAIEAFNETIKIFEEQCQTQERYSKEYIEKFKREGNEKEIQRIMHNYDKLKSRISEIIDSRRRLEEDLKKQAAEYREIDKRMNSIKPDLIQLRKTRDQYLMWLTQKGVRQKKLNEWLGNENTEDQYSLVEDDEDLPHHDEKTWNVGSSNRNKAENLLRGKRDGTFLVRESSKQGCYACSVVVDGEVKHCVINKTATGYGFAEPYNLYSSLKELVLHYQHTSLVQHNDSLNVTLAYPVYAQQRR
Outline: (§1)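 Compounds tested at 1 μM on α and β isoforms and at 0.3 or 0.1 μM on γ and δ, with percent inhibition from blank and enzyme controls, plus IC50 fits. Room-temperature reaction: 10 min enzyme–compound preincubation in MgCl2/DTT buffer with 1.38 μM PIP2, then 30 min after 400 μM ATP addition; PIP3 read by HTRF (665/620 nm).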

PI3kγ = PI3kγ (Homo sapiens, UniProt P48736); test: Fluorescent (HTRF) determination of PI3 kinase enzyme activity, PI3Kγ; assay type: biochemical; conditions: for inhibition at 0.1 µM / % inhibition (PI3kγ) 100 nM: 100 nM (Examples 60-137); for inhibition at 0.3 µM: 300 nM (Examples 1-59); for % inhibition (PI3kγ) 100 nM: 0.1 µM
Chain of PI3kγ (P48736 whole entry): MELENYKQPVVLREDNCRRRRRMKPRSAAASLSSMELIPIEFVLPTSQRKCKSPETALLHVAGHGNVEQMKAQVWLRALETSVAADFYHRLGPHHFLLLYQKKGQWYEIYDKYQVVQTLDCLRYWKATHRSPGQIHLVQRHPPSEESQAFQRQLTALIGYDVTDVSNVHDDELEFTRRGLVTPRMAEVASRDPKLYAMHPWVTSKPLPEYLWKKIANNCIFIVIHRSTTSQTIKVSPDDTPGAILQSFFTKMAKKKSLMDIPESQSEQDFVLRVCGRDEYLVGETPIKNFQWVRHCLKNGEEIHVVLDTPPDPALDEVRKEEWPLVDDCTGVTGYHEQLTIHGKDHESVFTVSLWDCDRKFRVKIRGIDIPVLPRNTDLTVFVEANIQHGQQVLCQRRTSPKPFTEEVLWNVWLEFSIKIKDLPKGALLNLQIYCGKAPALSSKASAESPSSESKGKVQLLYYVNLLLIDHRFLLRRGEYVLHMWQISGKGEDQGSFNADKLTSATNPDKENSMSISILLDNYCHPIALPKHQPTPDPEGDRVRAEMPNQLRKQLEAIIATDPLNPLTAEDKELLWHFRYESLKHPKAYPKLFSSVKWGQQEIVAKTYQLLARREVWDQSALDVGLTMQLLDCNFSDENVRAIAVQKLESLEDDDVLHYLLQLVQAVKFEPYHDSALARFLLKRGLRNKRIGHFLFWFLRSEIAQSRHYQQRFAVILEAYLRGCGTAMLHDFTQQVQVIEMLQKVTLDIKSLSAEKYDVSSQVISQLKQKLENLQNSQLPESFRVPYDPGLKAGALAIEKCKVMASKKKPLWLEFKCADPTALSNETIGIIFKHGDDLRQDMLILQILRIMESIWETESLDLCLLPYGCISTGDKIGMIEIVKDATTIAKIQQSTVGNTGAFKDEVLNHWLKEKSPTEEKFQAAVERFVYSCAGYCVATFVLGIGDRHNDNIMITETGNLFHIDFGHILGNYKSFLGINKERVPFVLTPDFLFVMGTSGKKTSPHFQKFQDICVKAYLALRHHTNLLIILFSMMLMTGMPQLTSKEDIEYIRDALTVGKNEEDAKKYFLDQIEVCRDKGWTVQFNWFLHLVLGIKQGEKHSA
Outline: as §1

PI3kα = PI3kα (Homo sapiens, UniProt P42336); test: Fluorescent (HTRF) determination of PI3 kinase enzyme activity, PI3Kα; assay type: biochemical
Chain of PI3kα (P42336 whole entry): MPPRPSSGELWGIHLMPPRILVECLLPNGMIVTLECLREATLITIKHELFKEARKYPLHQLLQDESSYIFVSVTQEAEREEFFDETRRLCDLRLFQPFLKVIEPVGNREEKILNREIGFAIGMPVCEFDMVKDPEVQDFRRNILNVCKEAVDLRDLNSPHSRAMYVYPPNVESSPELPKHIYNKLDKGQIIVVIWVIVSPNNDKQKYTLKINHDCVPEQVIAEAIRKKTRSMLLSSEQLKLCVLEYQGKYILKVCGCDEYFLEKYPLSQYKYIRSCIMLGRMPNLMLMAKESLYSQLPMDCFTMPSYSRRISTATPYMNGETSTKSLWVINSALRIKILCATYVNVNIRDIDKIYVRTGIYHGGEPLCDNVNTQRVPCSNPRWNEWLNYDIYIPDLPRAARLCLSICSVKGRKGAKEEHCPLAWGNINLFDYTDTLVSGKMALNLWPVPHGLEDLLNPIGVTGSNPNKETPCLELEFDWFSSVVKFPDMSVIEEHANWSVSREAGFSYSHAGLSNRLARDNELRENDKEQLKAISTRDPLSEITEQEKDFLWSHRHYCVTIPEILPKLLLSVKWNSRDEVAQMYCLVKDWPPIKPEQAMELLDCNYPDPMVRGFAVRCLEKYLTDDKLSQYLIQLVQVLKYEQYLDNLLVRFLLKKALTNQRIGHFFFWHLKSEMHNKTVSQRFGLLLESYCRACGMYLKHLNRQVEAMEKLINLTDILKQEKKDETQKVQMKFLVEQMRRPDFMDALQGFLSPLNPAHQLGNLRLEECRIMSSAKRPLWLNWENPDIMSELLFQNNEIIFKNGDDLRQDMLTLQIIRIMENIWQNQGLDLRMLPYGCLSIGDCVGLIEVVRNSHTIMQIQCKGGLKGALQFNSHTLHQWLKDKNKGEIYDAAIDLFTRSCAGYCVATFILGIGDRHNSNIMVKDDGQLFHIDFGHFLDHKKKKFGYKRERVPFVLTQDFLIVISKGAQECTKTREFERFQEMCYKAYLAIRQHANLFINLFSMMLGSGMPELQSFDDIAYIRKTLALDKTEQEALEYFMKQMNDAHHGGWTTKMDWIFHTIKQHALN
Chain of PI3kα (P27986 whole entry partner): as the sequence (P27986 whole entry partner, canonical isoform) above
Outline: as §1

PI3kβ = PI3kβ (Homo sapiens, UniProt P42338); test: Fluorescent (HTRF) determination of PI3 kinase enzyme activity, PI3Kβ; assay type: biochemical
Chain of PI3kβ (P42338 whole entry): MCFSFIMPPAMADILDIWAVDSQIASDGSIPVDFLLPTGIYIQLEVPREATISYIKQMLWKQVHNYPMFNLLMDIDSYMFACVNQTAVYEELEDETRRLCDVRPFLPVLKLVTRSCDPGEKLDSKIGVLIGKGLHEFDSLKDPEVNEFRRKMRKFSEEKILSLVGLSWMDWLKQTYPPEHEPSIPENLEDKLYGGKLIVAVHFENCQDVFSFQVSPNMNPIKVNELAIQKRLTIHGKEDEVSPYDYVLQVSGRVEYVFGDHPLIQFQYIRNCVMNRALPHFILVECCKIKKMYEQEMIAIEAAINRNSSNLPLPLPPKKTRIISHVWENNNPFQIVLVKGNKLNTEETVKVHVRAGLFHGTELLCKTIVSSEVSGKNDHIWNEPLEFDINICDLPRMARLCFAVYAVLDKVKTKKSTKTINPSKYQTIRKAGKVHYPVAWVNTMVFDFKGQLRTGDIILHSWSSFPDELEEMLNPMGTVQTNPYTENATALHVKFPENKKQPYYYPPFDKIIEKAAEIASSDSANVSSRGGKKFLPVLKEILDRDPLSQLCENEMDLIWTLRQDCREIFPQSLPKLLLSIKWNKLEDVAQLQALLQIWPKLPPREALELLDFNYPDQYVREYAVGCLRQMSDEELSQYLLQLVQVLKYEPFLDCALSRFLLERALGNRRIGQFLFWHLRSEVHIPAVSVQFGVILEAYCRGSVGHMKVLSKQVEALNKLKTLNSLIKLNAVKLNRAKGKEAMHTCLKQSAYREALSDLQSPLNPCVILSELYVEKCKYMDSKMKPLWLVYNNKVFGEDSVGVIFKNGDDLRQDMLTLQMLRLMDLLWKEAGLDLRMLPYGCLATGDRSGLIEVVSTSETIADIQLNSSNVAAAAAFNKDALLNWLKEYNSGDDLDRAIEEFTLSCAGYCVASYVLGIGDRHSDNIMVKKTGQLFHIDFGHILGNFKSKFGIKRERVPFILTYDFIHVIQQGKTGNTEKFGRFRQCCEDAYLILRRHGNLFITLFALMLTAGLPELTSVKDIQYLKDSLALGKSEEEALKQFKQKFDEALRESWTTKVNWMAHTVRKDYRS
Chain of PI3kβ (P27986 whole entry partner): as the sequence (P27986 whole entry partner, canonical isoform) above
Outline: as §1

| SMILES | inhibition at 0.1 µM (PI3kδ) [%] | inhibition at 0.1 µM (PI3kγ) [%] | inhibition at 1 µM (PI3kα; 1 uM) [%] | melting point [°C] | inhibition at 1 µM (PI3kβ) [%] | further results |
| --- | --- | --- | --- | --- | --- | --- |
| CC(C)C(=O)Nc1ccc(-c2nn(C(C)c3oc4cccc(F)c4c(=O)c3-c3cccc(F)c3)c3ncnc(N4CCOCC4)c23)cc1F (stereo not drawn) [Example 87, N-(2-fluoro-4-(1-(1-(5-fluoro-3-(3-fluorophenyl)-4-oxo-4H-chromen-2-yl)ethyl)-4-morpholino-1H-pyrazolo[3,4-d]pyrimidin-3-yl)phenyl)isobutyramide] | 50 to 75 | 0 to 25 | 25 to 50 | 168 to 170 | 50 to 75 | IC50 (PI3kδ): 100 to 300 nM |
| CC(c1oc2cccc(F)c2c(=O)c1-c1cccc(F)c1)n1nc(-c2ccc(CN3CCOCC3)s2)c2c(N)ncnc21 (stereo not drawn) [Example 76, 2-(1-(4-amino-3-(5-(morpholinomethyl)thiophen-2-yl)-1H-pyrazolo[3,4-d]pyrimidin-1-yl)ethyl)-5-fluoro-3-(3-fluorophenyl)-4H-chromen-4-one] | 25 to 50 | 25 to 50 | 0 to 25 | 193 to 196 | 25 to 50 | – |
| CC(c1oc2cccc(F)c2c(=O)c1-c1cccc(F)c1)n1nc(-c2ccc(N3CCOCC3)c(F)c2)c2c(N)ncnc21 (racemic) [Example 70, (R)/(S)-2-(1-(4-amino-3-(3-fluoro-4-morpholinophenyl)-1H-pyrazolo[3,4-d]pyrimidin-1-yl)ethyl)-5-fluoro-3-(3-fluorophenyl)-4H-chromen-4-one] | 25 to 50 | 25 to 50 | – | 243 to 246 | – | % inhibition (PI3kα) 1 uM (PI3kα; 1 uM): D (D=0 to 25%); % inhibition (PI3kβ) 1 uM (PI3kβ): C (C=>25 to 50%) |
| CC(Nc1ncnc2[nH]cnc12)c1oc2cccc(F)c2c(=O)c1-c1cccc(F)c1 (single isomer, unassigned; (+)) [Example 68, (+)-2-(1-(9H-purin-6-ylamino)ethyl)-5-fluoro-3-(3-fluorophenyl)-4H-chromen-4-one] | – | – | 25 to 50 | 194 to 197 | – | % inhibition (PI3kδ) 100 nM (PI3kδ): C (C=>25 to 50%); % inhibition (PI3kγ) 100 nM (PI3kγ): B (B=>50 to 75%); % inhibition (PI3kβ) 1 uM (PI3kβ): B (B=>50 to 75%) |
| CC(C)Cc1ccc(-c2nn(C(C)c3oc4cccc(F)c4c(=O)c3-c3cccc(F)c3)c3ncnc(N)c23)cc1 (stereo not drawn) [Example 49, 2-(1-(4-amino-3-(4-isobutylphenyl)-1H-pyrazolo[3,4-d]pyrimidin-1-yl)ethyl)-5-fluoro-3-(3-fluorophenyl)-4H-chromen-4-one] | – | – | 50 to 75 | 221 to 223 | 50 to 75 | inhibition at 0.3 µM (PI3kδ): 50 to 75%; inhibition at 0.3 µM (PI3kγ): 50 to 75% |
| CC(c1oc2cccc(F)c2c(=O)c1-c1cccc(F)c1)n1nc(-c2ccc(N3CCOCC3)c(Cl)c2)c2c(N)ncnc21 (single isomer, unassigned) [Example 127] | 50 to 75 | 0 to 25 | 0 to 25 | 260 to 262 | 50 to 75 | – |
| CC(c1oc2cccc(F)c2c(=O)c1-c1cccc(F)c1)n1nc(-c2ccc(N3CCOCC3)c(F)c2)c2c(N)ncnc21 (single isomer, unassigned) [Example 59] | – | – | – | 242 to 245 | 25 to 50 | IC50 (PI3kδ): 100 to 300 nM; IC50 (PI3kγ): ≤ 50 nM; IC50 (PI3kα; numeric values): > 10000 nM; IC50 (PI3kβ): > 500 nM |
| COC(=O)c1cc(-c2nn(C(C)c3oc4cccc(F)c4c(=O)c3-c3cccc(F)c3)c3ncnc(N)c23)cs1 (stereo not drawn) [Example 61, methyl 4-(4-amino-1-(1-(5-fluoro-3-(3-fluorophenyl)-4-oxo-4H-chromen-2-yl)ethyl)-1H-pyrazolo[3,4-d]pyrimidin-3-yl)thiophene-2-carboxylate] | 25 to 50 | 50 to 75 | 25 to 50 | 227 to 230 | 25 to 50 | – |
| Cc1ccc(-c2nn(C(C)c3oc4cccc(F)c4c(=O)c3-c3cccc(F)c3)c3ncnc(N)c23)s1 (stereo not drawn) [Example 62, 2-(1-(4-amino-3-(5-methylthiophen-2-yl)-1H-pyrazolo[3,4-d]pyrimidin-1-yl)ethyl)-5-fluoro-3-(3-fluorophenyl)-4H-chromen-4-one] | 50 to 75 | 25 to 50 | 0 to 25 | 223 to 226 | 50 to 75 | – |

The next lines start with results.

| inhibition at 0.1 µM (PI3kδ) [%] | inhibition at 0.1 µM (PI3kγ) [%] | inhibition at 1 µM (PI3kα; 1 uM) [%] | melting point [°C] | inhibition at 1 µM (PI3kβ) [%] | SMILES | further results |
| --- | --- | --- | --- | --- | --- | --- |
| 25 to 50 | 25 to 50 | 0 to 25 | 232 to 235 | 25 to 50 | CC(c1oc2cccc(F)c2c(=O)c1-c1cccc(F)c1)n1nc(-c2ccc(S(N)(=O)=O)cc2)c2c(N)ncnc21 (stereo not drawn) [Example 60, 4-(4-amino-1-(1-(5-fluoro-3-(3-fluorophenyl)-4-oxo-4H-chromen-2-yl)ethyl)-1H-pyrazolo[3,4-d]pyrimidin-3-yl)benzenesulfonamide] | – |
| – | – | 25 to 50 | 199 to 201 | 25 to 50 | CNc1nnc(-c2ccc(-c3nn(C(C)c4oc5cccc(F)c5c(=O)c4-c4cccc(F)c4)c4ncnc(N)c34)cc2)s1 (stereo not drawn) [Example 54, 2-(1-(4-amino-3-(4-(5-(methylamino)-1,3,4-thiadiazol-2-yl)phenyl)-1H-pyrazolo[3,4-d]pyrimidin-1-yl)ethyl)-5-fluoro-3-(3-fluorophenyl)-4H-chromen-4-one] | inhibition at 0.3 µM (PI3kδ): 50 to 75%; inhibition at 0.3 µM (PI3kγ): 50 to 75% |
| – | – | 0 to 25 | 230 to 232 | 50 to 75 | CC(C)Oc1ncc(-c2nn(C(C)c3oc4cccc(F)c4c(=O)c3-c3cccc(F)c3)c3ncnc(N)c23)cn1 (stereo not drawn) [Example 58, 2-(1-(4-amino-3-(2-isopropoxypyrimidin-5-yl)-1H-pyrazolo[3,4-d]pyrimidin-1-yl)ethyl)-5-fluoro-3-(3-fluorophenyl)-4H-chromen-4-one] | inhibition at 0.3 µM (PI3kδ): 50 to 75%; inhibition at 0.3 µM (PI3kγ): 25 to 50% |
| – | – | 0 to 25 | 116 to 119 | 25 to 50 | CC(C)Oc1ccc(-c2nn(C(C)c3oc4cccc(F)c4c(=O)c3-c3cccc(F)c3)c3ncnc(N4CCOCC4)c23)cc1F (stereo not drawn) [Example 85, 5-fluoro-2-(1-(3-(3-fluoro-4-isopropoxyphenyl)-4-morpholino-1H-pyrazolo[3,4-d]pyrimidin-1-yl)ethyl)-3-(3-fluorophenyl)-4H-chromen-4-one] | % inhibition (PI3kδ) 100 nM (PI3kδ): C (C=>25 to 50%); % inhibition (PI3kγ) 100 nM (PI3kγ): C (C=>25 to 50%) |
| 50 to 75 | 25 to 50 | 25 to 50 | 202 to 205 | 50 to 75 | CC(c1oc2cccc(F)c2c(=O)c1-c1cccc(F)c1)n1nc(-c2ccc(-c3nnc(N)s3)cc2)c2c(N)ncnc21 (stereo not drawn) [Example 77, 2-(1-(4-amino-3-(4-(5-amino-1,3,4-thiadiazol-2-yl)phenyl)-1H-pyrazolo[3,4-d]pyrimidin-1-yl)ethyl)-5-fluoro-3-(3-fluorophenyl)-4H-chromen-4-one] | IC50 (PI3kδ): 50 to 100 nM |
| 25 to 50 | 25 to 50 | 25 to 50 | 203 to 205 | 0 to 25 | CC(Nc1ncnc2[nH]cnc12)c1oc2cccc(F)c2c(=O)c1-c1ccccc1F (stereo not drawn) [Example 131, 2-(1-(9H-purin-6-ylamino)ethyl)-5-fluoro-3-(2-fluorophenyl)-4H-chromen-4-one] | – |
